Consider 38 compounds from the supplement of paper PMC11003180.

Each structure is given as a SMILES string.

Common to all, as to test: drug sensitivity score (DSS) from 5-dose viability curve (DSS (area-based score, 0 = no response)); higher = more sensitive (stronger viability inhibition); extreme values may be limits of the assay
Experiment [1] has as its system MDCK p60AmotL2-inducible + doxycycline (p60AmotL2 expressing). The note with it: doxycycline: 10 ng/mL; 72 h. A digest of the protocol:
(§1)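 Parental MDCK cells and MDCK cells with doxycycline-inducible p60AmotL2, both given doxycycline at 10 ng/mL in the medium before plating, were dispensed at 2000 cells/well onto pre-spotted 384-well plates. The plates held an oncology library of 528 drugs at five doses (1-10,000 nM) and were incubated 72 h at 37 °C. Viability was read as CellTiter-Glo luminescence and scaled per plate between vehicle and positive controls. Drug sensitivity scores came from dose-response curve fits in the Breeze pipeline.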

The test system of experiment [2] is MDCK wild-type + doxycycline. The note with it: doxycycline: 10 ng/mL; 72 h. A digest of the protocol: as §1
For experiment [3], the system named is MDCK wild-type - doxycycline. The note with it: doxycycline: none; 72 h. Put shortly:
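Parental MDCK cells without doxycycline were dispensed at 2000 cells/well onto pre-spotted 384-well plates. The plates held an oncology library of 528 drugs at five doses (1-10,000 nM) and were incubated 72 h at 37 °C. Viability was read as CellTiter-Glo luminescence and scaled per plate between vehicle and positive controls. Drug sensitivity scores came from dose-response curve fits in the Breeze pipeline.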

As for `O=C1CN2Cc3c(ccc(Cl)c3Cl)N=C2N1` [Anagrelide], the drug sensitivity score in experiment [1], in experiment [2] and in experiment [3] was 0 each time.
In the case of `O=C(O)c1ccc(-c2c[nH]c3ncc(-c4ccccc4)cc23)cc1C1CCCC1`, the drug sensitivity score in experiment [1] was 0.8; in experiment [2] it was 1; in experiment [3], 0.
On the same counts, the results for `CNCc1ccc(-c2[nH]c3cc(F)cc4c3c2CCNC4=O)cc1` [Rucaparib] are 0, 0 and 0.
On the same counts, the results for `Cc1noc2c1-c1ccccc1C(c1ccc(Cl)cc1)=N[C@H]2CC(N)=O` [CPI-0610] are 10.9, 4.8 and 3.1.
As to `CNC(=O)c1ccc(C)c(-n2c(C)cc(OCc3ccc(F)cc3F)c(Br)c2=O)c1`, the drug sensitivity score in experiment [1], in experiment [2] and in experiment [3] was 0 in each case.
Consider `COc1cc2nccc(Oc3ccc(NC(=O)Nc4cc(C)on4)c(Cl)c3)c2cc1OC` [Tivozanib], for which the drug sensitivity score was 4.4 in experiment [1], 8.2 in experiment [2] and 2.5 in experiment [3].
For `O=C(c1ccc(C(=O)N2CCC(N3CCCC3)CC2)c(Nc2ccccc2)c1)N1CCC(N2CCCC2)CC1` [UNC1215] the same measures were 0, 0 and 0.
For `C[C@@H]1CN(Cc2ccc(F)cc2)[C@@H](C)CN1C(=O)c1cc2c(C(=O)C(=O)N(C)C)cn(C)c2cc1Cl` [Talmapimod] the same measures were 0, 0 and 0.
With `CN1CCc2c(c3ccccc3n2Cc2ccc(C(=O)NO)cc2)C1` [Tubastatin A], the drug sensitivity score was determined as 0.7 in experiment [1], 0 in experiment [2] and 0 in experiment [3].
Consider `O[C@H](C[C@H]1c2c(F)cccc2-c2cncn21)[C@H]1CC[C@H](O)CC1` [GDC-0919], for which the drug sensitivity score in experiment [1], in experiment [2] and in experiment [3] was 0 each time.
Consider `Nc1ncnc2c1c(COc1cccc(Cl)c1)nn2C1CCOCC1`, for which the drug sensitivity score in experiment [1] was 0.5; in experiment [2] it was 0; in experiment [3] it was 0.
`CC(C)Oc1ccc(C(=O)N[C@H](CNC(=O)CN(C)C)Cc2ccc(-c3cn4cccc([C@H](C)O)c4n3)cc2)cc1Cl`: the drug sensitivity score in experiment [1] was determined as 15.8; in experiment [2], 12.8; in experiment [3], 10.7.
Regarding `CN(C)CC#Cc1ccc(OCCCc2sc(N3CCc4cccc(C(=O)Nc5nc6ccccc6s5)c4C3)nc2C(=O)O)c(F)c1`, the drug sensitivity score in experiment [1], in experiment [2] and in experiment [3] was 0 throughout.
Turning to `O=C(c1cc(Cc2n[nH]c(=O)c3ccccc23)ccc1F)N1CCN(C(=O)C2CC2)CC1` [Olaparib], the drug sensitivity score was 0.2 in experiment [1], 0 in experiment [2] and 0 in experiment [3].
In the case of `Cc1ccc(-c2cc(C(F)(F)F)nn2-c2ccc(S(N)(=O)=O)cc2)cc1` [Celecoxib], the drug sensitivity score in experiment [1], in experiment [2] and in experiment [3] was 0 in each case.
For the compound `O=S(=O)(c1cccc2c(O)nccc12)N1CCCNCC1` [Hydroxyfasudil], the drug sensitivity score in experiment [1], in experiment [2] and in experiment [3] was 0 in each case.
Take `CCN(CC)CCNC(=O)c1c(C)[nH]c(/C=C2\C(=O)Nc3ccc(F)cc32)c1C` [Sunitinib]: the drug sensitivity score in experiment [1] turned out to be 1.2; in experiment [2] it was 0; in experiment [3] it was 0.
Take `C#Cc1cccc(Nc2ncnc3cc4c(cc23)OCCOCCOCCO4)c1` [Icotinib]: the values for the drug sensitivity score in experiment [1], in experiment [2] and in experiment [3] were 7.8, 2.4 and 0, respectively.
On the same counts, the results for `O=C1CCC(N2C(=O)c3ccccc3C2=O)C(=O)N1` (centres undefined) [Thalidomide] are 0, 0 and 0.
For `Cc1nc(=O)c2cc(CN(C)c3ccc(C(=O)N[C@@H](CCC(=O)O)C(=O)O)s3)ccc2[nH]1` [Raltitrexed] the same measures were 5, 3.3 and 3.
For `Cc1[nH]nc(C(F)(F)F)c1Cc1sc2c(c1C(=O)N1C[C@](C)(O)CO1)c(=O)n(C)c(=O)n2C(C)C` [AZD3965] the same measures were 4.5, 0 and 0.
`CCN(CC)CCN(Cc1ccc(-c2ccc(C(F)(F)F)cc2)cc1)C(=O)Cn1c(SCc2ccc(F)cc2)nc(=O)c2c1CCC2` [Darapladib]: the drug sensitivity score in experiment [1], in experiment [2] and in experiment [3] was 0 in each case.
Consider `CN(C)CCCOc1ccc(-c2ccc3ncc4c(c3c2)n(C2CCOCC2)c(=O)n4C)cn1` [AZD0156], for which the drug sensitivity score in experiment [1] worked out at 1; in experiment [2], 0; in experiment [3], 0.
For `Cc1cn(-c2cc(NC(=O)c3ccc(C)c(Nc4nccc(-c5cccnc5)n4)c3)cc(C(F)(F)F)c2)cn1` [Nilotinib], the drug sensitivity score in experiment [1], in experiment [2] and in experiment [3] was 0 in each case.
As for `COc1cccc2c1C(=O)c1c(O)c3c(c(O)c1C2=O)C[C@@](O)(C(=O)CO)C[C@@H]3O[C@H]1C[C@H](N)[C@H](O)[C@H](C)O1` [Doxorubicin], the drug sensitivity score in experiment [1] is 9.8; in experiment [2], 8.3; in experiment [3] it was 3.7.
On the same counts, the results for `CC(C)(C)c1cnc(CSc2cnc(NC(=O)C3CCNCC3)s2)o1` [SNS-032] are 19.1, 17.8 and 16.3.
`CO[C@H](C(=O)[C@@H](O)[C@@H](C)O)[C@@H]1Cc2cc3cc(O[C@H]4C[C@@H](O[C@@H]5C[C@@H](O)[C@H](O)[C@@H](C)O5)[C@H](O)[C@@H](C)O4)c(C)c(O)c3c(O)c2C(=O)[C@H]1O[C@H]1C[C@@H](O[C@@H]2C[C@@H](O)[C@@H](O[C@@H]3C[C@](C)(O)[C@H](O)[C@@H](C)O3)[C@@H](C)O2)[C@H](O)[C@@H](C)O1` [Plicamycin]: the drug sensitivity score was found to be 14.1 in experiment [1], 11.3 in experiment [2] and 10.4 in experiment [3].
For `CC1(COc2ccc3c(c2)ncn3-c2ccc3cccc(N4CCC(N)CC4)c3n2)COC1` [Crenolanib] the same measures were 6.5, 8.1 and 5.4.
On the same counts, the results for `COc1cccc(-c2ccc(NC(=O)C3=C(C(=O)O)CCC3)c(F)c2)c1` [Vidofludimus] are 1.2, 0.6 and 0.4.
Regarding `CCN(CC)CCCC(C)Nc1ccnc2cc(Cl)ccc12` (centres undefined) [Chloroquine], the drug sensitivity score in experiment [1] came to 5.2; in experiment [2], 4.5; in experiment [3], 5.1.
On the same counts, the results for `CC(C)C[C@H](NC(=O)CNC(=O)c1cc(Cl)ccc1Cl)B(O)O` [Ixazomib] are 9.7, 9.4 and 9.6.
For `COc1ccc(-c2ccc3ncc4c(c3c2)n(-c2ccc(N3CCNCC3)c(C(F)(F)F)c2)c(=O)n4C)cn1` [NVP-BGT226] the same measures were 18.9, 13.5 and 11.8.
On the same counts, the results for `Cc1ccc(NC(=O)c2ccc(CN3CCN(C)CC3)cc2)cc1Nc1nccc(-c2cccnc2)n1` [Imatinib] are 3.4, 0 and 2.7.
`Cc1ccc(C(=O)N(CCCN)[C@@H](c2oc3cc(Cl)ccc3c(=O)c2Cc2ccccc2)C(C)C)cc1`: the drug sensitivity score in experiment [1] came to 8.8; in experiment [2], 5.8; in experiment [3] it was 15.3.
For the compound `Cn1cc(C[C@@H](N)C(=O)O)c2ccccc21` [1-methyl-D-tryptophan], the drug sensitivity score in experiment [1], in experiment [2] and in experiment [3] was 0 in each case.
Regarding `Cn1cncc1[C@@](N)(c1ccc(Cl)cc1)c1ccc2c(c1)c(-c1cccc(Cl)c1)cc(=O)n2C` [Tipifarnib], the figures for the drug sensitivity score in experiment [1], in experiment [2] and in experiment [3] were 9.6, 4.4 and 2.5, respectively.
As to `NC(=O)NO` [Hydroxyurea], the drug sensitivity score turned out to be 0 in experiment [1], 0 in experiment [2] and 2 in experiment [3].
For `CC(=O)Nc1cccc(-n2c(=O)n(C3CC3)c(=O)c3c(Nc4ccc(I)cc4F)n(C)c(=O)c(C)c32)c1` [Trametinib], the figures for the drug sensitivity score in experiment [1], in experiment [2] and in experiment [3] were 15.8, 7.4 and 6.6, respectively.
